*1 amine or outer side, *2 acyl side, *3 side chain or, on linkers, in order; H or OH if unused. Where a SMILES comes first, the peptide text is derived from it. [ ]: non-standard residue; d: D form. X2 = O=C(O)CC(CC(=O)O)NC[C@H](N[*:1])C(=O)[*:2]; Abu(4-PO3H2) = N[C@@H](CCP(=O)(O)O)C(=O)O; X1 = O=C([C@H](CNS(=O)(=O)O)N[*:1])[*:2]; M1 = not defined here

Data set [1] deals with ovarian tumor cells from tumor N015. The data set can be described thus: Patient tumor cell culture (ovarian tumors, abdominal carcinoma; tumor N015). It is filed as cell-based, human. An excerpt: The initial non-peptide Src inhibitors have also shown very encouraging results in four different series of cell culture assays. 1) In the NIH 60-tumor cell panel assay, broad activity (as one would expect for a Src inhibitor) was seen against the tumor cell lines, including the prostate lines. […] […].

In data set [2] the target is T1, PKA (Homo sapiens, UniProt P17612). The experiment in a line: PKA Literature Mimetic assay. It is filed as biochemical. As to conditions: for Ki: Literature Mimetic (L) conditions. An excerpt:
(§1) The boronic acid inhibitors 21-24 have two Arg residues in their sequence and therefore will bind to the phosphocellulose paper in addition to Kemptamide (although not as consistently or completely due to one less positive charge). Consequently, when analyzed as inhibitors, the amount of phosphorylated Kemptamide produced was not only counted, but also the amount of phosphorylated inhibitor simultaneously produced (e.g. see 26 below). The net result is that distorted IC50 curves are obtained which show net “stimulation” at higher inhibitor concentrations in some cases. […] The underlying substrate behavior of these “inhibitors” makes an accurate measurement of their inhibition potency impossible with the current assay. However, it does appear from the data that homologating/extending the boronic acid functionality with CH2 groups (homologations/extensions with boronic acid non-peptide src inhibitors may also be carried out) decreases the binding affinity and ability of the compound to function as a substrate.

The target of data set [3] is T1, PKA. The data set can be described thus: STAIRe method: form of the protein kinase the inhibitor binds best. It is filed as biochemical. An excerpt:
This was a somewhat surprising result since these inhibitors are analogs of the “end product inhibitors” 1 and 12 which must bind simultaneously with MgADP, following phosphate transfer in the generally accepted reaction mechanism for protein kinases.

Data set [4] deals with T1, PKA. The data set can be described thus: PKA Cellular Mimetic assay. It is filed as biochemical. Particulars: Cellular Mimetic (C) conditions.
Source text: as §1

The next data set deals with pp60^c-src (Homo sapiens, UniProt P12931). The data set can be described thus: src Cellular Mimetic assay (RR-SRC phosphorylation). Particulars: for inhibition at 1000 µM: read-out: % Inhibition of 2 mM RR-src phosphorylation by src, Cellular Mimetic; for % Inhibition of 2 mM RR-src at Inhibitor Concentration ( ): Table IV.
Chain of pp60^c-src (P12931 whole entry): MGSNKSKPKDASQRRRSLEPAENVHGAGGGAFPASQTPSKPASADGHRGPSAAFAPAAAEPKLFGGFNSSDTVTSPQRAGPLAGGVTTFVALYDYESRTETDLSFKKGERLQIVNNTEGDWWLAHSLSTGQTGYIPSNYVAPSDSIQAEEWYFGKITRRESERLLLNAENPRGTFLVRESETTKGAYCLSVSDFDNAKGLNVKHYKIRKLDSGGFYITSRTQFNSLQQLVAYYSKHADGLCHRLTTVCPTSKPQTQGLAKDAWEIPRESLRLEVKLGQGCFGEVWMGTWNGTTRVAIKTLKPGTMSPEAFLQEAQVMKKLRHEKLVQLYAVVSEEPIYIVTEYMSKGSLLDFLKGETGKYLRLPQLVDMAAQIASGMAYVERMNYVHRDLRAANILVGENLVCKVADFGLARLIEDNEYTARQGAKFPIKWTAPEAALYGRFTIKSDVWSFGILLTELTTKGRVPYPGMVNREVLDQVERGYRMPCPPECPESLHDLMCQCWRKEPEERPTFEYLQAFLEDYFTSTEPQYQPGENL
Another data set concerns the target T2, src (Homo sapiens, UniProt P12931).
T2 construct: purchased
The experiment in a line: src Literature Mimetic assay (RR-src phosphorylation). It is filed as biochemical. Particulars: Inhibitor 1 mM; read-out: % Inhibition of 2 mM RR-src phosphorylation by src, Literature Mimetic.

The test system of data set [5] is T3, boronic acid-containing PKA pentapeptide inhibitor 22, Ac-RRGXI-NH2.
T3 sequence: RRGXI

Data set [6] has as its system T4, boronic acid-containing PKA pentapeptide inhibitor 21, Ac-RRGXI-NH2.
T4 sequence: RRGXI

For a further data set, the target named is p56^lck (Homo sapiens, UniProt P06239). As to conditions: analyzed with p56^lck; cited from earlier work.
Chain of p56^lck (P06239 whole entry, species assumed): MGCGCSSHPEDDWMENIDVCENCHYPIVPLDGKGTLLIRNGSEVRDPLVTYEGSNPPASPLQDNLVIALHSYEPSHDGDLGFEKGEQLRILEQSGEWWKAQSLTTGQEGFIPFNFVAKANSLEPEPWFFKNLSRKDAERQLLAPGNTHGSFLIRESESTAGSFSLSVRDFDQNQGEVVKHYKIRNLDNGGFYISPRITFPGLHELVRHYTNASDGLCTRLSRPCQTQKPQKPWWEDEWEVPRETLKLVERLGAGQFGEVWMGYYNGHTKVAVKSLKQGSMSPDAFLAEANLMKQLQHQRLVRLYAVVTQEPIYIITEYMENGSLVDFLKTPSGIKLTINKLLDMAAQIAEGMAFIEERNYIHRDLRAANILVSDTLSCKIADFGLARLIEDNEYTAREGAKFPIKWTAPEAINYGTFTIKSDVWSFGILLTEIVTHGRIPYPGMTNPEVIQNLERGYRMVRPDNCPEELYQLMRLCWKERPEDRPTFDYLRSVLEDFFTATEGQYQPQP
In data set [7] the target is cAMP-dependent protein kinase (PKA). The experiment in a line: PKA kinase inhibition assay, Cellular Mimetic conditions; reference: phosphate inhibitor 1.
Data set [8] has the same target. The data set can be described thus: PKA kinase inhibition assay, Literature Mimetic conditions.
Data set [9] shares this target. The experiment in a line: PKA kinase inhibition assay, Literature Mimetic conditions; reference: phosphate inhibitor 1.
Data set [10] has the same target. The experiment in a line: PKA kinase inhibition assay, Literature Mimetic conditions; reference: sulfamic acid inhibitor 8.
Data set [11] shares this target. The experiment in a line: PKA kinase inhibition assay with Kemptamide substrate, Literature Mimetic conditions, 0 h preincubation.
For data set [12] the target is unchanged. The data set can be described thus: PKA kinase inhibition assay with Kemptamide substrate, Cellular Mimetic conditions, 0 h preincubation.
For data set [13] the target is unchanged. The data set can be described thus: cell-based or functional assay.
Data set [14] shares this target. The data set can be described thus: PKA kinase inhibition assay (Ki, Table I); reference: the same inhibitor under Literature Mimetic conditions.

T2 sequence (P12931 whole entry): as the sequence (P12931 whole entry) above

Regarding `CC(=O)O[C@H]1C(=O)[C@@]2(C)[C@H]([C@H](OC(=O)c3ccccc3)[C@]3(O)C[C@H](OC(=O)[C@H](O)[C@@H](NC(=O)c4ccccc4)c4ccccc4)C(C)=C1C3(C)C)[C@]1(OC(C)=O)CO[C@@H]1C[C@@H]2O` [taxol], the “efficacy in tumor cell culture compared with other drugs” value in data set [1] is recorded as “more effective than etoposide & cisplatin”.

The term Ki denotes the equilibrium dissociation constant of an inhibitor or competing ligand from its target. Read a high Ki as lower affinity. At PKA [2], `CC[C@H](C)[C@H](NC(=O)[C@H](CC(O)P(=O)(O)O)NC(=O)CNC(=O)[C@H](CCCNC(=N)N)NC(=O)[C@H](CCCNC(=N)N)NC(C)=O)C(N)=O` (single isomer, unassigned) [inhibitor 3A] displayed an inhibition constant (Ki) of 18 µM. This counts as double-digit micromolar.

As to `CC[C@H](C)[C@H](NC(=O)[C@H](CNS(=O)(=O)O)NC(=O)CNC(=O)[C@H](CCCNC(=N)N)NC(=O)[C@H](CCCNC(=N)N)NC(C)=O)C(N)=O` [compound 8] (Ac-RRG[X1]I-NH2), the “enzyme form bound best (STAIRe methodology)” value at PKA [3] was “bind best when MgATP (not MgADP or no nucleotide) is also bound”. The “binds more tightly than end product phosphate inhibitor 1” value was 108 times on PKA [4] and 31 times at PKA [2] (Literature Mimetic conditions).

Regarding `COC(=O)c1cc2ccccc2cc1N` [Compd 1d], on pp60^c-src (Table VI, hydroxynaphthalene series, 198 μM ATP), the “% Inhibition at 100 μM (std. dev.)” value was “inactive”.

As to `CC[C@H](C)[C@H](NC(=O)[C@H](CCP(=O)(O)O)NC(=O)CNC(=O)[C@H](CCCNC(=N)N)NC(=O)[C@H](CCCNC(=N)N)NC(C)=O)C(N)=O` (Ac-RRG[Abu(4-PO3H2)]I-NH2), on PKA [2], the affinity, expressed as Ki, was 76 µM.

For the molecule `CC[C@H](C)[C@H](NC(=O)[C@H](CC(O)P(=O)(O)O)NC(=O)CNC(=O)[C@H](CCCNC(=N)N)NC(=O)[C@H](CCCNC(=N)N)NC(C)=O)C(N)=O` (single isomer, unassigned) [inhibitor 3B], on PKA [2], the Ki is 72 µM. This Ki and that of the molecule before are within 1.5-fold of each other.

What is called inhibition is the change of the read-out against control, counted positive when it falls. Take `NC(=O)C(N)C(=O)O` (centres unmarked): the results for the inhibition at 1000 µM on pp60^c-src and at src were 0% and 24%, respectively.

On to `NC(=O)CC(=O)O`, for which the inhibition at 1000 µM stood at 28% on pp60^c-src and 20% on src.

For `OB(O)c1ccc2ccccc2c1` [compound 27], the “mode of inhibition relative to ATP” value at pp60^c-src (ATP increased up to 1 mM) was “not ATP-competitive”.

For cAMP-dependent protein kinase (PKA), the “phosphorylation by PKA on incubation for up to 4 hours without Kemptamide” value is “both 21 and 22 function as substrates with the D-diastereomer 22 being phosphorylated faster” in data set [5]; “both 21 and 22 function as substrates with the D-diastereomer 22 being phosphorylated faster” in data set [6].

In the case of `O=P(O)(O)CO`, the inhibition at 1000 µM on pp60^c-src came out at 0%; at src it was 51%.

In turn, `CC[C@H](C)[C@H](NC(=O)[C@H](CNC(CC(=O)O)CC(=O)O)NC(=O)CNC(=O)[C@H](CCCNC(=N)N)NC(=O)[C@H](CCCNC(=N)N)NC(C)=O)C(N)=O` (Ac-RRG[X2]I-NH2) showed an inhibition constant (Ki) on PKA [2] of 45 µM.

With `COc1cccc2c1C(=O)c1c(O)c3c(c(O)c1C2=O)C[C@@](O)(C(=O)CO)C[C@@H]3O[C@H]1C[C@H](N)[C@H](O)[C@H](C)O1` [doxorubicin], the “efficacy in tumor cell culture compared with other drugs” value in [1] is given as “more effective than etoposide & cisplatin”.

Turning to `NS(=O)(=O)c1ccc2ccccc2c1`, the “% Inhibition of 2 mM RR-src at Inhibitor Concentration ( )” value (“% Inhibition of 2 mM RR-src” for short) on pp60^c-src (100 μM inhibitor) is reported as 0 (100 μM) %.

As for `NC(=O)C(O)C(=O)O` (centres unmarked), the inhibition at 1000 µM on pp60^c-src turned out to be 5%; at src, 64%.

In the case of `NS(=O)(=O)c1cccc2ccccc12`, the “% Inhibition of 2 mM RR-src” value at pp60^c-src (100 μM inhibitor) was 0 (100 μM) %.

Consider `O=S(=O)(O)c1ccc2ccccc2c1`, for which the “% Inhibition of 2 mM RR-src” value at pp60^c-src (1 mM inhibitor) was 0 (1 mM) %.

As for `OB(O)c1cccc2ccccc12`, the “% Inhibition of 2 mM RR-src” value on pp60^c-src (100 μM inhibitor) was 0 (100 μM) %.

`OB(O)c1cc2ccccc2o1` [compound 35]: the “% Inhibition of 2 mM RR-src” value at pp60^c-src (100 μM inhibitor) was 10 (100 μM) %.

In the case of `Cc1cc(O)c2c(c1)C(=O)c1cc(O)cc(O)c1C2=O` [Emodin], the “mode of inhibition with respect to ATP” value on p56^lck is “ATP-competitive”.

B1: PKA pentapeptide inhibitor 8 (sulfamic acid), Ac-Arg-Arg-Gly-Ala(M1)-Ile-NH2 (peptide)
peptide: Ac-RRGAI-NH2
modifications: not fully specified (residue 4); printed as Ac-Arg-Arg-Gly-Ala(M1)-Ile-NH2; also: M1 = sulfamic acid on side chain of residue 4
Consider B1, for which the fold tighter binding than end product phosphate inhibitor 1 in [7] is 108 times; in [9], 31 times. For the same molecule, the Ki in data set [8] was determined as 0.16 µM.

B2: PKA pentapeptide inhibitor 7 (sulfonamide), Ac-Arg-Arg-Gly-Ala(M1)-Ile-NH2 (peptide)
peptide: Ac-RRGAI-NH2
modifications: not fully specified (residue 4); printed as Ac-Arg-Arg-Gly-Ala(M1)-Ile-NH2; also: M1 = sulfonamide on side chain of residue 4
Regarding B2, the fold less potent than inhibitor 8 in data set [10] is 1880 times. Also, the Ki in [8] was found to be 300 µM.

B3: PKA pentapeptide inhibitor 3A (hydroxyphosphonate, diastereomer A), Ac-Arg-Arg-Gly-Ala(M1)-Ile-NH2 (peptide)
peptide: Ac-RRGA(M1)I-NH2
modifications: reading uncertain; also: diastereomer A at M1, printed as Ac-Arg-Arg-Gly-Ala(M1)-Ile-NH2
In [8], B3 gave a Ki of 18 µM.

Turning to Ac-RRGAI-NH2 [pentapeptide pseudosubstrate inhibitor 20, Ac-RRGAI-NH2], the Ki in data set [11] stood at 9 µM. The molecule further came in with an inhibition constant (Ki) in data set [12] of 25 µM. In [13], the IC50 µM (cond. C, 0 h preincubation), PKA inhibition stood at 41 µM; the IC50 µM (cond. C, 4 h preincubation), PKA inhibition is 50 µM; the IC50 µM (cond. L, 0 h preincubation), PKA inhibition came to 278 µM; the IC50 µM (cond. L, 4 h preincubation), PKA inhibition was 417 µM.

B4: PKA pentapeptide inhibitor 11, Ac-Arg-Arg-Gly-Ala(M1)-Ile-NH2 (peptide)
peptide: Ac-RRGA(M1)I-NH2
modifications: not fully specified; printed as Ac-Arg-Arg-Gly-Ala(M1)-Ile-NH2; reading uncertain
Turning to B4, the Ki in data set [8] turned out to be 45 µM.

B5: PKA pentapeptide inhibitor 1 (end product phosphate inhibitor), Ac-Arg-Arg-Gly-Ala(M1)-Ile-NH2 (peptide)
peptide: Ac-RRGAI-NH2
modifications: not fully specified (residue 4); printed as Ac-Arg-Arg-Gly-Ala(M1)-Ile-NH2; also: M1 = phosphate group on side chain of residue 4
In turn, B5 returned a fold change in potency, Literature Mimetic to Cellular Mimetic conditions in [14] of 108 fold.

B6: PKA pentapeptide inhibitor 10, Ac-Arg-Arg-Gly-Ala(M1)-Ile-NH2 (peptide)
peptide: Ac-RRGA(M1)I-NH2
modifications: reading uncertain; also: M1 group structure shown only in a drawing, printed as Ac-Arg-Arg-Gly-Ala(M1)-Ile-NH2
Molecule B6 had a fold change in potency, Literature Mimetic to Cellular Mimetic conditions in data set [14] of 3 fold.

B7: PKA pentapeptide inhibitor 3B (hydroxyphosphonate, diastereomer B), Ac-Arg-Arg-Gly-Ala(M1)-Ile-NH2 (peptide)
peptide: Ac-RRGA(M1)I-NH2
modifications: reading uncertain; also: diastereomer B at M1, printed as Ac-Arg-Arg-Gly-Ala(M1)-Ile-NH2
B7 displayed a Ki in data set [8] of 72 µM.

B8: PKA pentapeptide inhibitor 2 (phosphonate), Ac-Arg-Arg-Gly-Ala(M1)-Ile-NH2 (peptide)
peptide: Ac-RRGAI-NH2
modifications: not fully specified (residue 4); printed as Ac-Arg-Arg-Gly-Ala(M1)-Ile-NH2; also: M1 = phosphonate on side chain of residue 4
B8 registered a Ki in data set [8] of 76 µM.

These data come from patent publication US7901894B2, “Kinase inhibitors” (The Research Foundation of State University of New York, priority 1999, dated 2011).
